# Measured values published in patent publication US11638427B2, “Methods and compositions for altering secondary metabolites in plants” (Impello Biosciences, Inc, priority 2020, dated 2023).
# Experiments:
# [1] = system: Colletotrichum gloeosporioides; assay: Mold growth on jasmonate-infused plates, mold 1 isolated from avocado; format: cell-based; conditions: various concentrations in plates
# Procedure: MDJ (TCI, CAS No.: 24851-98-7) and CJ were infused into potato dextrose agar (PDA, VWR Cat No.: 90003-494) petri dishes (100×15 mm VWR, Cat No: 25384-094) at concentrations ranging from 1 mM, 4.25 mM, and 10 mM. Each treatment was prepared using a technical grade stock solution of pure chemical (CJ or MDJ) diluted with TWEEN®-20 (VWR, CAS No.: […]). Culturable oyster mushroom and seedling mold served to create fungal mycelial plugs using a sterile 1 mL pipette tip (Eppendorf, Cat No.: 022491458) held upside down. The tips were used to make circle excisions (i.e., fungal plugs) from a mycelial mat grown on PDA with no biochemical infusions. Fungal pugs were then transferred to PDA infused with varying concentrations of CJ or MDJ, and control plates (no CJ or MDJ infusion) to monitor fungal growth at room temperature over time.
# Based on the above results in Cannabis spp., additional fungi from various crops was sampled and tested. Plates comprising various concentrations of MDJ or MJ were prepared as described above.
# strawberries = assay: Fruit MDJ dips, 2 weeks observation; format: in vivo
# Fusarium ventricosum = assay: MDJ spray on cannabis 'Jack Herer' plants infected with Fusarium ventricosum; format: in vivo
# Procedure: To investigate the efficacy of MDJ at inhibiting Fusarium ventricosum, plants of the cannabis variety ‘Jack Herer’ were infected and treated with either 1 mM or 10 mM MDJ. Briefly, after two weeks in vegetative light cycle, ‘Jack Herer’ plants were moved to flowering cycle and sprayed with 1 mM or 10 mM methyl dihydrojasmonate on 4/12/21. After 72 hours (4/15/21) all plants were infected with Fusarium ventricosum cultured on potato dextrose agar. Plants were infected using a fungal pick to inoculate the fungal culture at the stem of the plant. No visual signs of infection were observed after two weeks, so all plants were reinfected using a PDA and liquid culture of F. ventricosum on 4/28/21 and again on 5/14/21. Plants were harvested and hung to dry on 6/11/21 and dry weights recorded on 6/16/21. After harvest, stem tissue was taken from each treatment group and plated onto potato dextrose agar. Fusarium ventricosum was reisolated from each group.
# [2] = system: hemp varietal 'Bialobreszkie'; assay: MeJA foliar spray on fiber hemp, non-targeted metabolomic analysis (UPLC-MS, GC-MS); format: in vivo, Cannabis spp.
# Procedure: The efficacy and effectiveness of an eliciting composition and methods of use to alter secondary metabolite production were tested in a controlled environment with a commercial certified hemp varietal ‘Bialobreszkie’ (Bija Hemp, Denver, Colo., USA). […] This is in comparison with high metabolite-producing hemp varieties that typically yield greater than 10% by weight total cannabinoids.
# A non-targeted semi-quantitative metabolomic analysis was conducted to provide relative values for each detected analyte (i.e., compound) rather than absolute quantification, but with much greater detection limits than typical quantitative analysis provides. Additionally, the non-targeted nature allows essentially every compound that is present in the sample to be recorded and scored relative, providing a picture of the effect that each treatment has on the entire metabolome of the plant rather than only a snapshot of a few metabolites.
# One hundred and forty-four (144) ‘Bialobreszkie’ variety hemp seeds were surface sterilized in a 2% NaOCI solution for 5 minutes and primed for 12 hours in a 1:30 aqueous solution of TRIBUS® Original (a commercial plant growth promoting bacterial consortia) contained in a 50 mL centrifuge tube and placed on an orbital shaker at 80 rpm, then hand sewn into two 72-cell trays filled with commercial coco coir (Canna Gardening, NL). Of the 144 seeds, 112 germinated well and were selected for use in the trial. After two weeks of development in seedling trays, all 112 plants were transplanted into 4” square plastic pots filled with pure coco coir media and watered-in with a 4-20-39 fertilizer supplemented with calcium nitrate, magnesium sulfate, and TRIBUS® beneficial bacteria at a standardized rate. At the time of transplant, all plants were transitioned into the flowering stage by manipulating the photoperiod to a 12-hour light/12-hour dark schedule per 24-hour day.
# Plants were transplanted successively without regard to their size or physical attributes on Apr. 20, 2019. The square pots were arranged in an […] grid on a 4′×8′ black plastic bench under two×1000-watt DE-HPS lamps (Gavita International BV). Each pot was numbered in numerical order, row by row. After all plants/pots were labelled, a research randomizer tool (randomizer.org) was used to randomly generate 8 groups with 14 unique numbers in each group, ranging from 1-112.
# Treatment groups differed only in the frequency and timing of applications. Chemical composition of the elicitor formula remained identical between all treatment groups and consisted of a 7.5 mM methyljasmonate (MeJA, technical grade, TCI America) active ingredient applied in an aqueous spray consisting of reverse-osmosis purified water, supplemented only with 0.1% v/v polysorbate-20 (TWEEN®-20, reagent grade, VWR) as an emulsifier to support oil-in-water stability. […] Treatment groups were defined as follows: […]
# All plants receiving treatments were sprayed-to-drip with each application to ensure sufficient coverage. Treatments were made to all treatment plants during daylight hours but out of direct light. Plants were temporarily removed from the growing bench for treatment applications in order to prevent overspray of the treatment onto other plants in the experiment. In such instances, plants were returned to the growing bench immediately after the foliage had dried. Plants were cultivated under identical and typical growing conditions for 47 days, then whole plants were harvested successively and within one hour of each other, labeled with their corresponding plant number, and hung upside down in a well-ventilated room and allowed to dry. Loss of samples occurred either from plants dying during the experiment or insufficient flower set. All other plants in the experiment were approximately the same size and had similar numbers and size of flowers.
# Each of the 8 groups (7 treatment and 1 control) began the trial with 14 plants. 109 of 112 samples were run in the assay. […]
# [3] = 7.5 mM foliar spray, of the 597
compound,measurement,setting,value
"CCCCCC1C(=O)CCC1CC(=O)OC (stereo not shown) [MDJ, methyl dihydrojasmonate]",growth of mold isolated from avocado (mold 1),[1],effective at preventing the growth
same,mold,strawberries; dip 1 M,prohibited mold for two weeks
same,mold,"strawberries; dip 5, 10, 20 mM and control",mold in all groups after one week
same,flowers compared to the control,Fusarium ventricosum; 1 mM and 10 mM spray,larger flowers
same,leaves compared to the control,Fusarium ventricosum; 1 mM and 10 mM spray,"more yellow, wilting leaves"
same,plant biomass (dry weight) compared to the control group,Fusarium ventricosum; 1 mM and 10 mM spray 72 hours before infection,prevention in biomass reduction
"CC/C=C\C[C@H]1C(=O)CC[C@@H]1CC(=O)OC [MeJA, Methyl Jasmonate]",non-volatile hemp metabolome compared to the Control group (UPLC-MS),"[2]; 7.5 mM applied every 7, 14 or 28 days, or only once 72 hours prior to harvest",substantially altered
same,endogenous levels of jasmonate derivatives,[2]; 7.5 mM exogenous foliar application,increase endogenous levels of numerous jasmonate derivaties
same,significantly altered compounds not annotated,[2]; [3],466
same,significantly altered compounds putatively of superclass Alkaloids and derivatives,[2]; [3],5
same,significantly altered compounds putatively of superclass Benzenoids,[2]; [3],5
same,significantly altered compounds putatively of superclass Lipid or Lipid like,[2]; [3],78
same,significantly altered compounds putatively of superclass Organic acids and derivatives,[2]; [3],1
same,significantly altered compounds putatively of superclass Organic nitrogen compounds,[2]; [3],1
same,significantly altered compounds putatively of superclass Organic oxygen compounds,[2]; [3],9
same,significantly altered compounds putatively of superclass Organoheterocyclic compounds,[2]; [3],10
same,significantly altered compounds putatively of superclass Phenylpropanoids and polyketides,[2]; [3],14
same,non-volatile compounds significantly (p<0.05) altered by one or more treatment groups,"[2]; 7.5 mM foliar spray, of the 2,000+ compounds detected via UPLC-TOF",597
same,analytes with significantly altered relative abundance compared to the control group,"[2]; Treatment 1: 7.5 mM, one application every 7 days from first day of flowering",551
same,analytes with significantly altered relative abundance compared to the control group,"[2]; Treatment 2: 7.5 mM, one application every 14 days from first day of flowering",497
same,analytes with significantly altered relative abundance compared to the control group,"[2]; Treatment 3: 7.5 mM, one application every 28 days from first day of flowering",41
same,analytes with significantly altered relative abundance compared to the control group,"[2]; Treatment 4: 7.5 mM, only one application on the first day of flowering",did not significantly altered the relative abundance of any analytes
same,analytes with significantly altered relative abundance compared to the control group,"[2]; Treatment 5: 7.5 mM, only one application on the 30th day of flowering",4
same,analytes with significantly altered relative abundance compared to the control group,"[2]; Treatment 6: 7.5 mM, only one application 72 hours prior to harvest",399
same,analytes with significantly altered relative abundance compared to the control group,"[2]; Treatment 7: 7.5 mM, only one application 24 hours prior to harvest",216
